Patent US20170035787A1, “Fixed Dose Combination for Pain Relief Without Edema” (Autotelic LLC, priority 2014, published 2017)
“And” between values parts separate entries of the source, which are not always exact repeats. Equal values may be shown once. “Also recorded” adds a separate entry of the source. Each block holds one compound with its values, some of them ahead of it.

Experiments:
[1] = CELEBREX Package Insert table; cited from earlier work
[2] = Combined plots and meta analysis of published celecoxib pharmacokinetic data; format: in vivo, human
Text: In other words, the most efficacious celecoxib dosage is not well defined among the elderly. The problem may be more widespread than expected as elderly here is defined as patients greater than >40 or >50, not the usually definition of elderly (age greater >65).

[3] = in vivo
[4] = cited from earlier work
[5] = Applicant's meta analysis of reported edema rates in osteoarthritic populations by celecoxib dose

Compound: COc1ccc2cc([C@H](C)C(=O)O)ccc2c1 [naproxen]
patients treated who develop edema [1]: 2.1%

Compound: CC(C)Cc1ccc(C(C)C(=O)O)cc1 (centres unmarked) [ibuprofen]
patients treated who develop edema [1]: 3.5%

Compound: O=C(O)Cc1ccccc1Nc1c(Cl)cccc1Cl [diclofenac]
patients treated who develop edema [1]: 1.0%

drug exposure as defined by AUC, elderly vs younger patients ([2]; age-based subgroups, FIG. 3): highly significant differences
% Edema ([3]; human): 20%
upper limit and average edema event rate ([5]; 400 mg/day vs 100 or 200 mg/day): more than twice as high
edema event rates ([5]; 100 vs 200 mg/day dose): remarkably similar edema event rates
Compound: Cc1ccc(-c2cc(C(F)(F)F)nn2-c2ccc(S(N)(=O)=O)cc2)cc1 [celecoxib]
variability of pharmacokinetics; 100 mg vs 200 mg dose PK results ([2]; FIG. 2, listed as CELEBREX®): unexpectedly high; also recorded: substantial overlap
effect of anti-hypertensive class on incidence of edema in patients taking CELEBREX [3]: steady increase in incidence of edema
incidence of edema in patients taking CELEBREX with or without diuretic [3]: steady increase in incidence of edema
incidence of edema with vs without CELEBREX by arthritis group [3]: increased when patients was taken CELEBREX® for all groups except for RA and no Arthritis free patients
incidence of edema ([4]; two trials with much higher incidence): 23% and 38%
incidence of edema at any site ([4]; usual incidence in clinical trials of celecoxib): about 3%
patients treated who develop edema [1]: 2.1%
